From patent US20030134901A1, “Lipoxin compounds and their use in treating cell proliferative disorders” (priority 1993, published 2003)

Experiments:
15-PGDH = biological target: T1, 15-PGDH (Homo sapiens, UniProt P15428); conditions: 15-PGDH of HL-60 cells (Agins et al. 1987); cited from earlier work
T1 construct: 100,000 g supernatants prepared from PMA-treated HL-60 cells converted 15-HETE to 15-oxo-ETE; endogenous in cells; host or cells: HL-60 cells treated with PMA (16 nM, 24-72 h); freeze-thaw lysate, 100,000 g supernatant
T1 sequence (P15428 1-266): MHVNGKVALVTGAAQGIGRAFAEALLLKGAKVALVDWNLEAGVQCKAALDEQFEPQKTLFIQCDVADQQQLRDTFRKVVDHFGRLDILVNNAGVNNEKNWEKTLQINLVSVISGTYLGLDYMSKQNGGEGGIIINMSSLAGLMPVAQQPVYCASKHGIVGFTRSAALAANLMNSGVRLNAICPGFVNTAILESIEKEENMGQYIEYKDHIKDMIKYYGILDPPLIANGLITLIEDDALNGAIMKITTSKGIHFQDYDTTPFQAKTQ

A549 cells = assay: 15-HETE generation by IL-1β-treated A549 cells; assay type: cell-based, human
Procedure: FIG. 3 is a graph showing the relative chiralities of 15-HETE triggered by ASA. A549 cells (10^7 cells per flask) were exposed to IL-1β (1 ng/ml) for 24 h, treated with vehicle (0.1% vol/vol ethanol) (□) or ASA (▪) for 20 min and then incubated (30 min, 37° C.) in HBSS containing arachidonic acid (20 μM) and A23187 (5 μM). Products were chromatographed by RP-HPLC (as in FIG. 1B) and the region containing 15-HETE was collected, extracted with chloroform and treated with diazomethane. Chiral analysis was performed with a Bakerbond DNBPG (see Methods for details). Results are representative of two separate experiments showing similar results.
In incubations involving permeabilized A549 cells (prepared by a rapid freeze-thaw cycle), IL-1β-treated (1 ng/ml, 24 h) A549 cells (1.5×10^6 cells/ml) were pretreated for 20 min with either vehicle (0.1% EtOH), ASA (500 (M; used throughout), 5 (M 17-ODYA, an inhibitor of cytochrome P450, (Muerhoff A. S., et al. (1989) Prostaglandin and fatty acid ω and (ω-1)-oxidation in rabbit lung: acetylenic fatty acid mechanism-based inactivators as specific inhibitors. J Biol.Chem. 244: 749-756.), or […] Rev 5901 isomer, a 5-LO inhibitor, subjected to two cycles of rapid freezing in a dry ice-acetone bath and thawing to room temperature (full cycle <20 min), and incubated with arachidonic acid ([…] for 20 min at 37° C. in 4 ml of DPBS^2+. In experiments involving radiolabeled arachidonic acid, incubations were initiated with the addition of [^3H]-arachidonic acid (0.25 (Ci/ml) plus unlabeled arachidonic acid ([…] for 20 min at 37° C.
For time-course experiments involving the generation of 15-HETE from endogenous sources (see FIG. 2B), intact A549 cells were exposed to IL-1β (1 ng/ml) for up to 48 h and then treated with vehicle (containing 0.1% EtOH) or ASA for 20 min followed by addition of ionophore A23187 (5 μM) in 4 ml of HBSS for 30 min at 37° C.
The monohydroxy eicosanoids (i. e. 5-, 12- and 15-HETE) from A549 cells were analyzed using a Ultrasphere-ODS column (5 μm, 4.6 mm×25 cm) (Beckman Instruments, Fullerton, Calif.) was eluted with MeOH/H2O/acetic acid (65:35:0.01; v/v/v) as phase one (t0-20 min), and a linear gradient with MeOH/acetic acid (99.9:0.1, v/v) as phase two (20-45 min) at a flow rate of 1.0 ml/min. The R- and S-enantiomers of 15-HETE were resolved and identified using a chiral HPLC system similar to that reported by Hawkins et al. (1988). […] When indicated, generation of 15-HETE from endogenous sources was monitored by radioimmunoassay (RIA). […]

[1] = tested on: A549 cell-PMN costimulation; assay: Eicosanoid formation in A549 cell-PMN coincubations; assay type: cell-based, human; conditions: A549 cells exposed 20 min before addition of PMN
Procedure: In coincubation experiments, confluent A549 cells were exposed to IL-1β (1 ng/ml, 24 h), washed in HBSS and treated with vehicle alone or ASA for 20 min and arachidonic acid ([…] for 60 seconds at 37° C. Coincubations were performed by adding PMN to A549 cell monolayers followed by costimulation with ionophore A23187 (5 μM) in 4 ml of HBSS for 30 min at 37° C.
For analysis of LXs (including LXs and 15-epi-LXs) from A549 cell-PMN, coincubations were carried out using either a Waters (Bondapak C18 ([…]) column eluted with an isocratic mobile phase MeOH/H2O/acetic acid (60:40:0.01; v/v/v) with a flow rate of 0.6 ml/min or an Altex Ultrasphere ODS column (5 μm, 10 ×25 cm) eluted with MeOH/H2O/acetic acid (65:35:0.01; v/v/v) at a flow of 3 ml/min. Peptidoleukotrienes (LTC4 and LTD4) eluted in the MeOH fractions from Sep-Pak cartridge extractions were resolved with a Beckman Ultrasphere-ODS column eluted with MeOH/H2O/acetic acid (65:35:0.01; v/v/v), pH 5.7, at 1 ml/min. […] The material beneath peaks absorbing at 300 nm were individually collected after RP-HPLC and analyzed by gas chromatography-mass spectrometry (GC-MS) employing a Hewlett-Packard 5890 GC series II equipped with a 5971A mass-selective quadrapole detector as in Clària, J. and Serhan, C. […]

[2] = biological target: T2, LXA4 specific binding sites of differentiated HL-60 cells (Homo sapiens, UniProt P25090); assay: 3H-LXA4 specific binding to differentiated HL-60 cells; conditions: competition, competitor 300 nM where printed
T2 construct: endogenous in cells; host or cells: HL-60 cells differentiated with DMSO, retinoic acid or PMA; intact cells
T2 sequence (P25090 1-351): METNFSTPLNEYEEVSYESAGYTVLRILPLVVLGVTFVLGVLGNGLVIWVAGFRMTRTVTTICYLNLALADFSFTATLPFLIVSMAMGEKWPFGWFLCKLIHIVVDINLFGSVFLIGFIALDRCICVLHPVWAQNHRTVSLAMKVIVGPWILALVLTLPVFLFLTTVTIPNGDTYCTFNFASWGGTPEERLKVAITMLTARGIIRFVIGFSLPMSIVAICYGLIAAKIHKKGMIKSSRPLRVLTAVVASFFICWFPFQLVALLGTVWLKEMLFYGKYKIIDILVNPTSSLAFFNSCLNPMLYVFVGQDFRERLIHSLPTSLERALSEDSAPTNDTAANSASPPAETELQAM

HUVEC = assay: 3H-LTB4 binding to HUVEC; set-up: species or system human; conditions: 3H-LTB4, n=3
Procedure: Cell cultures and differentiation. HL-60 cells were seeded in RPMI medium supplemented with 100 U/ml penicillin, 100 μg/ml streptomycin, and 10% fetal calf serum (Hyclone, Logan, Utah), incubated at 37° C. with 5% CO2 atmosphere in 250 ml flasks. Individual flasks containing ˜[…] next received dimethyl sulfoxide (DMSO) (1.12% v/v, 120 h) or retinoic acid (RA) (1 μM, 120 h) or phorbol myristate acetate (PMA) (20 nM, 48 h). Before performing binding assays, cells were washed twice in phosphate buffered saline (PBS), Ca^2+- and Mg^2+-free, enumerated and suspended at 20×10^6 cells/ml in Tris buffer (10 mM), pH 7.4 (Fiore, S. et al.(1992) J. Biol. Chem. 267:16168). Nitro blue tetrazolium reduction was performed to monitor induction of polymorphonuclear phenotype as in (Imaizumi, M. and Breitman, T. R. (1986) Blood 67:1273), and cell adherence was determined for induction of macrophage-like phenotype (Collins, S. J. (1987) Blood 70:1273). […]
Ligand binding. ^3H-LXA4 and ^3H-LTB4 binding was performed essentially as in Fiore, S. et al.(1992) J. Biol. Chem. 267:16168. […] The incubations were rapidly centrifuged (60 sec, 12,000 g) on silicon oil (d=1.028), and cell-associated radioactivity was determined by liquid scintillation counting (Wallac 1409, Pharmacia, Piscataway, N.J.). […]

[3] = pretreatment 20 min, 37° C., chiral HPLC

Structure (SMILES): CCCCC[C@H](O)/C=C/C=C\C/C=C\C/C=C\CCCC(=O)O [15-HETE, 15-hydroxyeicosatetraenoic acid]
- substrate efficiency compared to PGE2 (15-PGDH): 92%

Structure (SMILES): CC(=O)Oc1ccccc1C(=O)O [ASA, acetylsalicylic acid]
- effect on formation of 15-HETE (A549 cells; permeabilized IL-1β-treated A549 cells, arachidonic acid 20 μM): marked increase
- formation of 15S-HETE (A549 cells; [3]): remained unaltered
- increase in the amounts of 15R-HETE (A549 cells; [3]): 3 fold
- formation of LXs [1]: increase in the formation of LXs
- formation of pLTs (LTC4 plus LTD4) [1]: decrease in pLTs

Structure (SMILES): CCCCC/C=C\C[C@@H](O)/C=C/C=C/C=C\[C@@H](O)CCCC(=O)O [LTB4, leukotriene B4]
- displacement of 3H-LXA4 specific binding [2]: Neither LXB4, LTB4, nor trihydroxyheptanoic acid (methyl ester) (300 nM) were able to displace
- specific binding to HUVEC (HUVEC): did not specifically bind
